{
  "source": "patent US20030228635A1",
  "about": "“Cell proliferation assays and methods” (Renovar, Inc., priority 2002, published 2003)",
  "origin": "cited, not measured here",
  "test_system": "cells",
  "conditions": "cells labelled with CFSE; Lyons and Parish 1994",
  "data": [
    {"substance": "carboxy-fluorescein diacetate, succinimidyl ester [CFSE]", "values": [
      {"measurement": "effect on cellular function", "value": "does not adversely affect cellular function"}
    ]}
  ]
}
